Here are results for four compounds from patent publication US5393774A, “Phenylethanolamines, pharmaceutical compositions containing these compounds and process for preparing them” (priority 1990, dated 1995).

As usually defined, the ED50 is the dose that gives a 50% effect, or the effect in half of the subjects.

Like-named read-outs stand apart in the source and are kept apart here.

The subject of the assay is bronchospasm triggered by intravenous administration of 20 μg/kg of acetyl-choline. The assay can be described thus: broncholytic effect, test arrangement according to KONZETT and ROSSLER on anesthetized guinea-pigs. In kind it is in vivo. Particulars: Cavia porcellus, read-out: ED50 (broncholytic effect, reduction in acetyl-choline bronchospasm).
[1] abbreviates: after i.v. administration, anesthetized guinea-pigs, 20 μg/kg acetyl-choline i.v., linear regression analysis.

Protocol: The broncholytic effect was investigated by the test arrangement according to KONZETT and ROSSLER (Arch. exp. Path. Pharmak. 195, 71 (1940)) on anesthetized guinea-pigs. An ED50 was calculated from the average percentage reduction, achieved with the various intravenous doses, in the bronchospasm triggered by intravenous administration of 20 μg/kg of acetyl-choline, by linear regression analysis according to LINDER (Statistische Methoden, 4th Edition, pp. 148-162, Birkhauser, Basel 1964):

Consider `Nc1c(Cl)cc(C(O)CNCCCCCCOCCCCc2ccccc2)cc1Cl` (stereo not shown) [V], for which the ED50 under setting [1] is > 400 µg/kg.
`Cl.N#Cc1cc(C(O)CNCCCCCCOCCCCc2ccccc2)cc(F)c1N` (stereo not shown) [Substance B, 1-(4-amino-3-cyano-5-fluoro-phenyl)-2-[6-(4-phenylbutoxy)-hexyl-amino]ethanol-hydrochloride]: under setting [1], the ED50 was determined as 2.5 µg/kg.
Turning to `COc1ccc(CC(C)NCC(O)c2cc(F)c(N)c(C#N)c2)cc1.Cl` (stereo not shown) [Substance C, 1-(4-amino-3-cyano-5-fluoro-phenyl)-2-[2-(4-methoxyphenyl)-1-methyl-ethylamino]-ethanol-hydrochloride], the ED50 was 0.16 µg/kg.
On to `CCOC(=O)Nc1c(F)cc(C(O)CNCCCCCCOCCCCc2ccccc2)cc1C#N.Cl` (stereo not shown) [Substance A, 1-(4-ethoxycarbonylamino-3-cyano-5-fluoro-phenyl)-2-[6-(4-phenyl-butoxy)hexylamino]-ethanol-hydrochloride], for which the ED50 under setting [1] amounted to 10.2 µg/kg.
